The results in this text go back to US20240308985A1 (Psy Therapeutics, Inc., priority 2021, published 2024).

SMILES strings stand for the structures. Read-outs that look alike come from different tables or passages of the source.

Format in all cases: biochemical
Experiment [1] has as its target Monoacylglycerol Lipase (MAGL) (Homo sapiens (Human), UniProt Q99685). As to the kind of experiment: MAGL inhibition potency (IC50) assay with 4NPA substrate.
The next experiment concerns the target MAGL enzyme (Homo sapiens (Human), UniProt Q99685). Kind of experiment: MAGL reversible inhibition assay (washout). The note with it: for A: degree to which MAGL enzymatic activity returned following washout of test compounds: pre-washout compound concentration 1 μM; for B: % MAGL activity returning after washout: relative to control (no inhibitor before washout), immediately following a 30 minute washout. More on the design: B: % MAGL activity returning after washout: concentration or dose not given beside the values. On the procedure: The reversible mechanism of MAGL inhibition of a test compound of Formula (I) can be determined. Flag-tagged MAGL enzyme will be immobilized on anti-Flag beads. Immobilized enzyme will be incubated +/− inhibitor at a dose that produces complete inhibition. Colorimetric substrate (4-NPA) will be added and the reaction monitored on a plate reader for 30 minutes to verify complete inhibition. Immobilized enzyme will then be washed thoroughly to remove the inhibitor, and fresh substrate will be added. The reaction will be monitored for an additional 30 minutes; returning enzymatic activity will indicate reversibility of inhibition.
MAGL enzyme was incubated for 30 minutes in the presence of 40× the IC50 concentration of inhibitor. Enzyme+inhibitor mix was then diluted 40-fold so that the final concentration of the inhibitor equaled the IC50 concentration. Substrate was added and the reaction was monitored for 30 minutes.

The target in a further experiment is human recombinant FAAH (Homo sapiens (Human), UniProt O00519). As to the kind of experiment: FAAH inhibition potency counter screen (IC50). The note with it: Method A: starting concentration of 100 μM. On the procedure: Comparative compound potency at FAAH can be obtained with the following assay.
MAGL inhibitor compounds were also counter-screened for FAAH inhibition potency using the following assay. Assessment of FAAH inhibition was performed using Fatty Acid Amide Hydrolase Inhibitor Screening Assay Kit (Cayman Item No. 10005196) following manufacture's instruction with some modifications. The kit utilizes human recombinant FAAH and the fluorescent substrate, AMC Arachidonoyl amide (AAMCA). 5 μL of assay buffer (125 mM Tris, pH 9.0, 1 mM EDTA, i.e. ethylenediaminetetraacetic acid) was added to a 384-well black plate (Corning, 3573). Test compounds and control inhibitor JZL-195 (Cayman Chemical, 13668) were tested in 10-concentration IC50 mode with 3-fold serial dilution at a starting concentration of 100 μM and 10 μM, respectively. 300 nL or 30 nL of test compounds were delivered into a 384-well black plate (Corning, 3573) using a Labcyte Echo, followed by addition of 15 μL of FAAH enzyme (Cayman, 700302) in assay buffer. After a 5-minute pre-incubation at room temperature, 10 μL of AAMCA was added in assay buffer to start the reaction. Final concentration of FAAH enzyme is not specified and AAMCA substrate was used at the 20 uM. After these dilutions, the final concentration of the test compounds ranged from 100 μM to 5.08 nM or 10 μM down to 0.508 nM. The reaction was allowed to progress for 60 minutes, while the plate was read on an Envision plate reader at an Ex/Em of 350/460 nm with readings every minute. The data was analyzed in Microsoft Excel, using the slope between 30 and 59 minutes. The average of the no-enzyme wells (background) was subtracted from the data. The background-subtracted slope data was converted to % activity using the average of wells with enzyme and DMSO vehicle. IC50 values were calculated using GraphPad software (Sigmoidal dose response, variable slope equation).
Compounds listed in Table D2 were tested in the FAAH Counterscreen of Example 23
A general note: The purpose of a counterscreen is to sort out artefacts and off-target activity.

[2] abbreviates: Method 12: Reaction Biology MAGL enzyme, 15 nM, read-out: MAGL Potency (Detection Method).
The mark [3] stands for this setting: Method 11: Reaction Biology MAGL enzyme, 25 nM (name: Conc 20), read-out: MAGL Potency (Detection Method).
[4] abbreviates: Method 13: Reaction Biology MAGL enzyme, 12 nM, read-out: MAGL Potency (Detection Method).
The mark [5] stands for this setting: Method 12: Reaction Biology MAGL enzyme, 15 nM, read-out: Potency (MAGL inhibition).

Chain of MAGL enzyme (Q99685 whole entry): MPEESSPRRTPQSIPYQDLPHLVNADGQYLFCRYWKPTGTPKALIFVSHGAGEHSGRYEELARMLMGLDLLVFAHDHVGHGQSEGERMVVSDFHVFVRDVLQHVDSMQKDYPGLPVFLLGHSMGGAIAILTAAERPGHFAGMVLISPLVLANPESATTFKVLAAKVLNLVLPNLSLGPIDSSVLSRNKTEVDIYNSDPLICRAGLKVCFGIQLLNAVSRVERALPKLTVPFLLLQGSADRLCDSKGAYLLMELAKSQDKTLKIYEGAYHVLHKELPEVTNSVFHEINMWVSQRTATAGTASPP
Chain of human recombinant FAAH (O00519 whole entry): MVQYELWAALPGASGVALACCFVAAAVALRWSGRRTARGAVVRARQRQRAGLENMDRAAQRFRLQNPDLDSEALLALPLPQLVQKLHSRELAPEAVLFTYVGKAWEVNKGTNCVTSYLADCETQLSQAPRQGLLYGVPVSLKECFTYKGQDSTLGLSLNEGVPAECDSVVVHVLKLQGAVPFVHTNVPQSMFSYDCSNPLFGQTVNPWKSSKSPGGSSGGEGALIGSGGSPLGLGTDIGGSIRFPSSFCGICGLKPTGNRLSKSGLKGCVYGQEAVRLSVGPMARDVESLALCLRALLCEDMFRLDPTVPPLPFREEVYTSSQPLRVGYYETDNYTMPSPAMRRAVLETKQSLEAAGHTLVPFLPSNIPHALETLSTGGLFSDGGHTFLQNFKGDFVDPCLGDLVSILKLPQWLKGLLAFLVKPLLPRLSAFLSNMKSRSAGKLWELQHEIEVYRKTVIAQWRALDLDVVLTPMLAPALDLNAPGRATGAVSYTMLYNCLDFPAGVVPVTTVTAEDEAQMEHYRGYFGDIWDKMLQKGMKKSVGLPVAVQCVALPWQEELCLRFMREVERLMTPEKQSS
Chain of Monoacylglycerol Lipase (MAGL) (Q99685 2-303): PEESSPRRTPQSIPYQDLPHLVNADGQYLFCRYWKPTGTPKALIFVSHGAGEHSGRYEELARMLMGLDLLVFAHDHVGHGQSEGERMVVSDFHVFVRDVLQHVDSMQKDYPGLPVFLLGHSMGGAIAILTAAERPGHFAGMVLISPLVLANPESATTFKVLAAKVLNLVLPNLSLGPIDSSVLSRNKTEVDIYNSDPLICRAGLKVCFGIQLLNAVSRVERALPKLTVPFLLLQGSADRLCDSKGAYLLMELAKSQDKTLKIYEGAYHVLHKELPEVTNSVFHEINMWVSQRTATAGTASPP

In the case of `Cc1cnn(C2CC3(C2)CN(C(=O)c2cc(O)ccc2F)C3)c1-c1cc(F)ccc1Cl` (single isomer, unassigned) [Compound 519, (6-(5-(2-chloro-5-fluorophenyl)-4-methyl-1H-pyrazol-1-yl)-2-azaspiro [3.3]heptan-2-yl) (2-fluoro-5-hydroxyphenyl) methanone], in experiment [1] (setting [2]), the IC50 lay in the range of 0.05 to 0.15 µM. Besides, at MAGL enzyme, the “A: degree to which MAGL enzymatic activity returned following washout of test compounds” value (“A: degree” below) is 155 and the “B: % MAGL activity returning after washout” value (“B: % MAGL activity returning” for short) is above 50%.
Take `Cc1ccccc1-n1nc(C2CC3(C2)CN(C(=O)c2cc(O)ccc2F)C3)cc1C` [Compound 117]: the IC50 on human recombinant FAAH is above 10 µM.
For `Cc1cc(C2CC3(C2)CN(C(=O)c2ccccc2F)C3)n(-c2ccccc2C)n1` [Compound 122, (2-fluorophenyl)(6-(3-methyl-1-(o-tolyl)-1H-pyrazol-5-yl)-2-azaspiro[3.3]heptan-2-yl)methanone], the IC50 was 1 to 5.1 µM in experiment [1] (Method 2: Cayman Chemical MAGL enzyme, 10 nM, read-out: MAGL Potency (Detection Method)) and above 10 µM on human recombinant FAAH.
For `COc1ccc(F)c(C(=O)N2CC3(CC(c4cc(C)nn4-c4ccccc4C)C3)C2)c1` [Compound 123], the IC50 in experiment [1] (Method 2: Cayman Chemical MAGL enzyme, 10 nM, read-out: Potency (MAGL inhibition)) was above 10 µM; on human recombinant FAAH, above 10 µM.
As to `COc1cc(F)ccc1C(=O)N1CC2(CC(n3nc(-c4cc(F)ccc4C)cc3C(F)(F)F)C2)C1` [Compound 458, (4-fluoro-2-methoxyphenyl){6-[3-(5-fluoro-2-tolyl)-5-(trifluoromethyl)-1-pyrazolyl]-2-aza-2-spiro[3.3]heptyl}methanone], the IC50 in experiment [1] (setting [3]) is 1 to 5.1 µM.
The same measure, in the same setting: the result for `CCOc1cc(F)ccc1C(=O)N1CC2(CC(n3nc(C)cc3-c3ccccc3C)C2)C1` [Compound 460] reads 1 to 5.1 µM; that for `CCOc1cc(F)ccc1C(=O)N1CC2(CC(n3nc(-c4ccccc4C)cc3C)C2)C1` [Compound 461, (2-ethoxy-4-fluorophenyl){6-[5-methyl-3-(o-tolyl)-1-pyrazolyl]-2-aza-2-spiro[3.3]heptyl}methanone], 0.5 to 1 µM.
Still for that read-out and setting: the figure for `CCOc1cc(F)ccc1C(=O)N1CC2(CC(n3nc(C)cc3-c3cc(F)ccc3C)C2)C1` [Compound 462, (2-ethoxy-4-fluorophenyl){6-[5-(5-fluoro-2-tolyl)-3-methyl-1-pyrazolyl]-2-aza-2-spiro[3.3]heptyl}metbanone] is 1 to 5.1 µM; for `CCOc1cc(F)ccc1C(=O)N1CC2(CC(n3nc(-c4cc(F)ccc4C)cc3C)C2)C1` [Compound 463, (2-ethoxy-4-fluorophenyl){6-[3-(5-fluoro-2-tolyl)-5-methyl-1-pyrazolyl]-2-aza-2-spiro[3.3]heptyl}methanone] it is 0.5 to 1 µM.
Same read-out and setting: the figure for `Cc1cc(-c2ccccc2C)n(C2CC3(C2)CN(C(=O)c2ccc(F)cc2OCC(F)(F)F)C3)n1` [Compound 464, [4-fluoro-2-(2,2,2-trifluoroethoxy)phenyl]{6-[3-methyl-5-(o-tolyl)-1-pyrazolyl]-2-aza-2-spiro[3.3]heptyl}methanone] is 0.5 to 1 µM; for `Cc1ccccc1-c1cc(C)n(C2CC3(C2)CN(C(=O)c2ccc(F)cc2OCC(F)(F)F)C3)n1` [Compound 465, [4-fluoro-2-(2,2,2-trifluoroethoxy)phenyl]{6-[5-methyl-3-(o-tolyl)-1-pyrazolyl]-2-aza-2-spiro[3.3]heptyl}methanone] it is 0.15 to 0.5 µM.
For the compound `Cc1cc(-c2cc(F)ccc2C)n(C2CC3(C2)CN(C(=O)c2ccc(F)cc2OCC(F)(F)F)C3)n1` [Compound 466], the IC50 in experiment [1] (setting [3]) fell in the range of 0.5 to 1 µM.
As to `Cc1ccc(F)cc1-c1cc(C)n(C2CC3(C2)CN(C(=O)c2ccc(F)cc2OCC(F)(F)F)C3)n1` [Compound 467, {6-[3-(5-fluoro-2-tolyl)-5-methyl-1-pyrazolyl]-2-aza-2-spiro[3.3]heptyl} [4-fluoro-2-(2,2,2-trifluoroethoxy)phenyl]methanone], in experiment [1] (setting [3]), the IC50 fell in the range of 0.15 to 0.5 µM.
On to `Cc1ccc(F)c(-c2nn(C3CC4(C3)CN(C(=O)c3cc(O)ccc3F)C4)cc2C(F)(F)F)c1` [Compound 475, (2-fluoro-5-hydroxyphenyl){6-[3-(2-fluoro-5-tolyl)-4-(trifluoromethyl)-1-pyrazolyl]-2-aza-2-spiro[3.3]heptyl}methanone], for which the IC50 in experiment [1] (setting [2]) is below 0.05 µM.
`Cc1cn(C2CC3(C2)CN(C(=O)c2cc(O)ccc2F)C3)nc1-c1cc(F)ccc1F` [Compound 477, {6-[3-(2,5-difluorophenyl)-4-methyl-1-pyrazolyl]-2-aza-2-spiro[3.3]heptyl}(2-fluoro-5-hydroxyphenyl)methanone]: the IC50 in experiment [1] (setting [4]) is below 0.05 µM.
Take `O=C(c1cc(O)ccc1F)N1CC2(CC(n3nc(C(F)(F)F)cc3-c3ccccc3C(F)(F)F)C2)C1` [Compound 487, (2-fluoro-5-hydroxyphenyl)(6-{3-(trifluoromethyl)-5-[o-(trifluoromethyl)phenyl]-1-pyrazolyl}-2-aza-2-spiro[3.3]heptyl)methanone]: in experiment [1] (setting [4]), the IC50 lay in the range of 0.15 to 0.5 µM.
`O=C(c1cc(O)ccc1F)N1CC2(CC(n3cc(C4CC4)c(-c4ccccc4C(F)(F)F)n3)C2)C1` [Compound 488, (6-{4-cyclopropyl-3-[o-(trifluoromethyl)phenyl]-1-pyrazolyl}-2-aza-2-spiro[3.3]heptyl)(2-fluoro-5-hydroxyphenyl)methanone]: the IC50 in experiment [1] (setting [2]) was below 0.05 µM.
With `Cc1cnn(C2CC3(C2)CN(C(=O)c2cc(O)ccc2C(F)(F)F)C3)c1-c1ccccc1F` [Compound 494], the IC50 in experiment [1] (setting [5]) was above 10 µM.
With `Cc1cn(C2CC3(C2)CN(C(=O)c2cc(O)ccc2C(F)(F)F)C3)nc1-c1ccccc1F` [Compound 495], in experiment [1] (setting [5]), the IC50 is above 10 µM.
For the compound `Cc1cn(C2CC3(C2)CN(C(=O)c2cc(O)ccc2F)C3)nc1-c1cc(F)ccc1Cl` [Compound 520, {6-[3-(2-chloro-5-fluorophenyl)-4-methyl-1-pyrazolyl]-2-aza-2-spiro[3.3]heptyl}(2-fluoro-5-hydroxyphenyl)methanone], in experiment [1] (setting [2]), the IC50 was below 0.05 µM. In addition, at MAGL enzyme, the “A: degree” value stood at 100 and the “B: % MAGL activity returning” value is above 50%.
Regarding `O=C(c1c(F)cccc1OC1CC1)N1CC2(CC(n3ncc(C(F)(F)F)c3-c3ccccc3F)C2)C1` [Compound 521], in experiment [1] (setting [5]), the IC50 was above 10 µM.
For `O=C(c1c(F)cccc1OC1CC1)N1CC2(CC(n3cc(C(F)(F)F)c(-c4ccccc4F)n3)C2)C1` [Compound 522, (2-cyclopropoxy-6-fluorophenyl){6-[3-(o-fluorophenyl)-4-(trifluoromethyl)-1-pyrazolyl]-2-aza-2-spiro[3.3]heptyl}methanone], in experiment [1] (setting [2]), the IC50 fell in the range of 1 to 5.1 µM.
Take `O=C(c1ccc(F)cc1OC1CC1)N1CC2(CC(n3ncc(C(F)(F)F)c3-c3ccccc3F)C2)C1` [Compound 523, (2-cyclopropoxy-4-fluorophenyl) {6-[5-(o-fluorophenyl)-4-(trifluoromethyl)~1-pyrazolyl]-2-aza-2-spiro[3.3]heptyl}methanone]: the IC50 in experiment [1] (setting [2]) is 1 to 5.1 µM.
Take `O=C(c1ccc(F)cc1OC1CC1)N1CC2(CC(n3cc(C(F)(F)F)c(-c4ccccc4F)n3)C2)C1` [Compound 524, (2-cyclopropoxy-4-fluorophenyl){6-[3-(o-fluorophenyl)-4-(trifluoromethyl)-1-pyrazolyl]-2-aza-2-spiro[3.3]heptyl}methanone]: in experiment [1] (setting [2]), the IC50 is 0.15 to 0.5 µM.
On the same count and under the same terms, the figure for `O=C(c1cc(O)ccc1F)N1CC2(CC(n3ccc(-c4ccccc4C(F)(F)F)n3)C2)C1` [Compound 525, (2-fluoro-5-hydroxyphenyl)(6-{3-[o-(trifluoromethyl)phenyl]-1-pyrazolyl}-2-aza-2-spiro[3.3]heptyl)methanone] is below 0.05 µM.
For `O=C(Oc1ccc([N+](=O)[O-])cc1)N1CCC(C(O)(c2ccc3c(c2)OCO3)c2ccc3c(c2)OCO3)CC1` [JZL-184, reference compound], at MAGL enzyme, the “A: degree” value was “complete lack of return of MAGL enzymatic activity after washout” and the “B: % MAGL activity returning” value is listed as below 1%.
